Here are results for 38 compounds from patent US10052330B2, “Substituted pyrido[3,4-b]pyrazines as Syk inhibitors” (HUTCHISON MEDIPHARMA LIMITED, priority 2011, dated 2018).

The target of one experiment is Syk kinase (Homo sapiens, UniProt P43405). Put plainly: Syk kinase enzymatic assay (Kit-Tyr 2 Peptide). It counts as biochemical.
For the next experiment, the system named is RBL-2H3 cells. As to the kind of experiment: IgE-induced Beta-hexosaminidase secretion in RBL-2H3 cells. It is filed as cell-based. Conditions: Rattus norvegicus.
Where [1] appears, read: 8 concentrations, 1 μM down to 0.0003 μM, upper bound of each range is 'less than', read-out: IC50: Enzymatic Activity (Syk kinase).
[2] abbreviates: RBL-2H3, RBL-2H3 cells sensitized with SPE-7, stimulated with DNP-BSA, upper bound of each range is 'less than', read-out: IC50, IgE-induced Beta-hexosaminidase secretion.

Like-named read-outs stand apart in the source and are kept apart here.

In general, IC50 refers to the midpoint of a concentration-inhibition curve.

`COc1cc(OC)cc(-c2cc3nccnc3c(NCC3CCCNC3)n2)c1` (stereo not shown) [Compound 15]: the IC50 at Syk kinase (setting [1]) and in the experiment with RBL-2H3 cells (setting [2]) was 0.1 to 1 µM in each case.

With `CC(C)Oc1ccc(-c2cc3nccnc3c(NCC3CNCCC3(F)F)n2)cc1F` (stereo not shown) [Compound 297], the IC50 on Syk kinase (setting [1]) and in the experiment with RBL-2H3 cells (setting [2]) was 0.001 to 0.1 µM in each case.

In the case of `Fc1cc(-c2cc3nccnc3c(NCC3(F)CCCNC3)n2)ccc1N1CCOCC1` (single isomer, unassigned) [Compound 382], the 50% inhibitory concentration (IC50) on Syk kinase (setting [1]) and in the experiment on RBL-2H3 cells (setting [2]) was 0.001 to 0.1 µM in each case.

In the case of `FC(F)(F)Oc1ccc(-c2cc3nccnc3c(NCC3CCCNC3)n2)cc1` (stereo not shown) [Compound 54], the IC50 was in the range of 0.001 to 0.1 µM at Syk kinase (setting [1]) and 0.1 to 1 µM in the experiment with RBL-2H3 cells (setting [2]).

`COc1ccc(-c2cc3nccnc3c(NC[C@H]3CCCNC3)n2)cc1OC` [Compound 33]: the IC50 on Syk kinase (setting [1]) was in the range of 0.001 to 0.1 µM; with RBL-2H3 cells (setting [2]), 0.1 to 1 µM.

In the case of `NCCCNc1nc(-c2ccc(N3CCOCC3)nc2)cc2nccnc12` [Compound 194], the half-maximal inhibitory concentration (IC50) on Syk kinase (setting [1]) and in the experiment on RBL-2H3 cells (setting [2]) was 0.1 to 1 µM each time.

`Fc1cc(-c2cc3nccnc3c(NC[C@@H]3CNCCC3(F)F)n2)ccc1N1CCOCC1` [Compound 368, (S)—N-((4,4-difluoropiperidin-3-yl)methyl)-7-(3-fluoro-4-morpholinophenyl) pyrido[4,3-b]pyrazin-5-amine]: the IC50 at Syk kinase (setting [1]) and in the experiment on RBL-2H3 cells (setting [2]) was 0.001 to 0.1 µM throughout.

Turning to `CC(C)(C)c1ccc(-c2cc3nccnc3c(NC[C@@H]3CCCNC3)n2)cc1` [Compound 83], the half-inhibitory concentration (IC50) at Syk kinase (setting [1]) was in the range of 0.001 to 0.1 µM; with RBL-2H3 cells (setting [2]), 0.1 to 1 µM.

For the compound `COCC(=O)N1CCN(c2ccc(-c3cc4nccnc4c(NC[C@@H]4CNCCO4)n3)cc2)CC1` [Compound 279], the half-inhibitory concentration (IC50) at Syk kinase (setting [1]) and with RBL-2H3 cells (setting [2]) was 0.001 to 0.1 µM in each case.

For the compound `Fc1cc(-c2cc3nccnc3c(NC[C@@H]3CNCCO3)n2)ccc1N1CCCOCC1` [Compound 219], the 50% inhibitory concentration (IC50) at Syk kinase (setting [1]) and in the experiment on RBL-2H3 cells (setting [2]) was 0.001 to 0.1 µM in each case.

As to `CN(C)Cc1ccc(-c2cc3nccnc3c(NCC3CNCCC3(F)F)n2)cc1` (stereo not shown) [Compound 303], the IC50 at Syk kinase (setting [1]) and in the experiment on RBL-2H3 cells (setting [2]) was 0.1 to 1 µM throughout.

With `c1cnc2c(N3CCC4(CCCNC4)C3)nc(-c3ccc(N4CCOCC4)nc3)cc2n1` (stereo not shown) [Compound 130], the IC50 at Syk kinase (setting [1]) and in the experiment with RBL-2H3 cells (setting [2]) was 0.001 to 0.1 µM each time.

Turning to `CS(=O)(=O)N1CCO[C@H](CNc2nc(-c3ccc(C4CCN(CCO)CC4)cc3)cc3nccnc23)C1` [Compound 493], the 50% inhibitory concentration (IC50) on Syk kinase (setting [1]) lay within 0.001 to 0.1 µM; in the experiment on RBL-2H3 cells (setting [2]), 0.1 to 1 µM.

In the case of `FC1(F)CCNC[C@H]1CNc1nc(-c2cnn(C3CCOCC3)c2)cc2nccnc12` [Compound 398, (S)—N-((4,4-difluoropiperidin-3-yl)methyl)-7-(1-(tetrahydro-2H-pyran-4-yl)-1H-pyrazol-4-yl)pyrido[4,3-b]pyrazin-5-amine], the IC50 on Syk kinase (setting [1]) and in the experiment with RBL-2H3 cells (setting [2]) was 0.001 to 0.1 µM throughout.

With `CCN(CC)c1ccc(-c2cc3nccnc3c(NCC3CCCNC3)n2)cc1` (stereo not shown) [Compound 73], the IC50 at Syk kinase (setting [1]) fell in the range of 0.001 to 0.1 µM; in the experiment with RBL-2H3 cells (setting [2]) it was 0.1 to 1 µM.

As for `O=C(CF)N1CCO[C@H](CNc2nc(-c3ccc(N4CCOCC4)cc3)cc3nccnc23)C1` [Compound 340], the IC50 fell in the range of 0.001 to 0.1 µM on Syk kinase and 0.001 to 0.1 µM with RBL-2H3 cells (RBL-2H3, read-out: IC50, IgE-induced Beta-hexosaminidase secretion).

On to `FC1(F)CCNCC1CNc1nc(-c2ccc(N3CCOCC3)nc2)cc2nccnc12` (stereo not shown) [Compound 292], for which the IC50 at Syk kinase (setting [1]) and with RBL-2H3 cells (setting [2]) was 0.001 to 0.1 µM in each case.

Turning to `CN1CCN(c2ccc(-c3cc4nccnc4c(NC[C@@H]4CNCCO4)n3)cc2)CC1` [Compound 123], the IC50 at Syk kinase (setting [1]) and in the experiment with RBL-2H3 cells (setting [2]) was 0.001 to 0.1 µM throughout.

In the case of `CN(c1ccc(-c2cc3nccnc3c(NC[C@@H]3CNCCC3(F)F)n2)cc1)S(C)(=O)=O` [Compound 394, (S)—N-(4-(5-((4,4-difluoropiperidin-3-yl)methylamino)pyrido[4,3-b]pyrazin-7-yl)phenyl)-N-methylmethanesulfonamide], the IC50 at Syk kinase (setting [1]) and in the experiment with RBL-2H3 cells (setting [2]) was 0.001 to 0.1 µM in each case.

On to `CS(=O)(=O)N1CCC(c2ccc(-c3cc4nccnc4c(NC[C@@H]4CN(C(=O)C(F)F)CCO4)n3)cc2)CC1` [Compound 465], for which the IC50 on Syk kinase (setting [1]) and in the experiment with RBL-2H3 cells (setting [2]) was 0.001 to 0.1 µM each time.

As to `O=C1CCCN1c1ccc(-c2cc3nccnc3c(NC[C@@H]3CNCCO3)n2)cc1` [Compound 124], the IC50 on Syk kinase (setting [1]) and with RBL-2H3 cells (setting [2]) was 0.1 to 1 µM throughout.

Regarding `CS(=O)(=O)N1CCC(n2cc(-c3cc4nccnc4c(NCC4CNCCC4(F)F)n3)cn2)CC1` (stereo not shown) [Compound 321], the IC50 on Syk kinase (setting [1]) and with RBL-2H3 cells (setting [2]) was 0.001 to 0.1 µM throughout.

For `c1cnc2c(NC[C@@H]3CNCCO3)nc(-c3ccc(N4CCCC4)nc3)cc2n1` [Compound 103], the values for the IC50 at Syk kinase (setting [1]) and with RBL-2H3 cells (setting [2]) were 0.001 to 0.1 µM and 0.1 to 1 µM, respectively.

`CN1CCN(c2ccc(-c3cc4nccnc4c(NCC4CNCCC4(F)F)n3)cc2)CC1` (stereo not shown) [Compound 293]: the IC50 on Syk kinase (setting [1]) was 0.001 to 0.1 µM; with RBL-2H3 cells (setting [2]) it was 0.1 to 1 µM.

With `C[C@H]1CN(c2ccc(-c3cc4nccnc4c(NCC4CNCCC4(F)F)n3)cc2)CCO1` (single isomer, unassigned) [Compound 396], the IC50 on Syk kinase (setting [1]) and in the experiment on RBL-2H3 cells (setting [2]) was 0.001 to 0.1 µM each time.

Turning to `CCS(=O)(=O)N1CCN(c2ccc(-c3cc4nccnc4c(NC[C@@H]4CNCCO4)n3)cc2)CC1` [Compound 435], the IC50 on Syk kinase (setting [1]) and with RBL-2H3 cells (setting [2]) was 0.001 to 0.1 µM throughout.

`CNc1ccc(-c2cc3nccnc3c(NC[C@@H]3CCCNC3)n2)cc1` [Compound 84]: the 50% inhibitory concentration (IC50) on Syk kinase (setting [1]) and with RBL-2H3 cells (setting [2]) was 0.1 to 1 µM each time.

As to `COc1cccc(-c2cc3nccnc3c(NCC3CCCNC3)n2)c1` (stereo not shown) [Compound 17], the IC50 at Syk kinase (setting [1]) and with RBL-2H3 cells (setting [2]) was 0.1 to 1 µM in each case.

Take `FC1(F)CCN(c2ccc(-c3cc4nccnc4c(NC[C@@H]4CNCCO4)n3)cc2)C1` [Compound 226]: the IC50 on Syk kinase (setting [1]) and with RBL-2H3 cells (setting [2]) was 0.001 to 0.1 µM throughout.

Turning to `c1cnc2c(NC[C@H]3CCCNC3)nc(-c3ccc(N4CCOCC4)nc3)cc2n1` [Compound 87], the results for the IC50 on Syk kinase (setting [1]) and in the experiment with RBL-2H3 cells (setting [2]) were 0.001 to 0.1 µM and 0.1 to 1 µM, respectively.

In the case of `Fc1cc(-c2cc3nccnc3c(NC[C@@H]3CCCNC3)n2)ccc1N1CCOCC1` [Compound 121], the results for the concentration for half-maximal inhibition (IC50) at Syk kinase (setting [1]) and in the experiment with RBL-2H3 cells (setting [2]) were 0.001 to 0.1 µM and 0.1 to 1 µM, respectively.

As to `CNC(=O)COc1ccc(-c2cc3nccnc3c(NCC3CNCCC3(F)F)n2)cc1` (stereo not shown) [Compound 306], the IC50 on Syk kinase (setting [1]) and with RBL-2H3 cells (setting [2]) was 0.001 to 0.1 µM each time.

Regarding `CCN1CCN(c2ccc(-c3cc4nccnc4c(NCC4CNCCO4)n3)cc2)CC1` (stereo not shown) [Compound 215], the IC50 on Syk kinase (setting [1]) and in the experiment with RBL-2H3 cells (setting [2]) was 0.001 to 0.1 µM each time.

On to `c1cnc2c(NC[C@@H]3CCCNC3)nc(-c3ccc(N4CCCC4)cc3)cc2n1` [Compound 119], for which the IC50 was 0.001 to 0.1 µM at Syk kinase (setting [1]) and 0.1 to 1 µM in the experiment on RBL-2H3 cells (setting [2]).

On to `CS(=O)(=O)N1CCC(c2ccc(-c3cc4nccnc4c(NC[C@@H]4CN(S(C)(=O)=O)CCO4)n3)cc2)CC1` [Compound 469], for which the IC50 on Syk kinase (setting [1]) and with RBL-2H3 cells (setting [2]) was 0.001 to 0.1 µM each time.

With `CS(=O)(=O)N1CCN(c2ccc(-c3cc4nccnc4c(NCC4CNCCC4(F)F)n3)cn2)CC1` (stereo not shown) [Compound 442], the IC50 on Syk kinase (setting [1]) and in the experiment with RBL-2H3 cells (setting [2]) was 0.001 to 0.1 µM each time.

In the case of `Fc1cc(-c2cc3nccnc3c(NC[C@H]3CCCNC3)n2)ccc1N1CCOCC1` [Compound 129], the IC50 on Syk kinase (setting [1]) and in the experiment with RBL-2H3 cells (setting [2]) was 0.001 to 0.1 µM throughout.

Regarding `FC1(F)CCNCC1CNc1nc(-c2ccc(N3CCOCC3)c(Cl)c2)cc2nccnc12` (stereo not shown) [Compound 205], the half-maximal inhibitory concentration (IC50) at Syk kinase (setting [1]) and with RBL-2H3 cells (setting [2]) was 0.001 to 0.1 µM in each case.
